Source: patent US6420375B1, “Fused ring compounds, process for producing the same and use thereof” (Takeda Chemical Industries, Ltd., priority 1997, dated 2002)

What follows are molecules tested against T1, rat steroid C17-20-lyase (Rattus norvegicus, UniProt P11715) (assay: Assay of inhibitory activity on rat steroid C17-20-lyase in vitro). Details: testicular microsomes of male SD rats; 10 nM [1,2-3H]-17α-hydroxyprogesterone, NADPH; 7 min at 37° C.; concentration reducing products (testosterone and androstenedione) by 50%.
T1 construct: testicular microsomes were prepared by a series of centrifugation; from tissue; host or cells: testicular microsomes from 13-week old male SD rats
T1 sequence (P11715 1-507): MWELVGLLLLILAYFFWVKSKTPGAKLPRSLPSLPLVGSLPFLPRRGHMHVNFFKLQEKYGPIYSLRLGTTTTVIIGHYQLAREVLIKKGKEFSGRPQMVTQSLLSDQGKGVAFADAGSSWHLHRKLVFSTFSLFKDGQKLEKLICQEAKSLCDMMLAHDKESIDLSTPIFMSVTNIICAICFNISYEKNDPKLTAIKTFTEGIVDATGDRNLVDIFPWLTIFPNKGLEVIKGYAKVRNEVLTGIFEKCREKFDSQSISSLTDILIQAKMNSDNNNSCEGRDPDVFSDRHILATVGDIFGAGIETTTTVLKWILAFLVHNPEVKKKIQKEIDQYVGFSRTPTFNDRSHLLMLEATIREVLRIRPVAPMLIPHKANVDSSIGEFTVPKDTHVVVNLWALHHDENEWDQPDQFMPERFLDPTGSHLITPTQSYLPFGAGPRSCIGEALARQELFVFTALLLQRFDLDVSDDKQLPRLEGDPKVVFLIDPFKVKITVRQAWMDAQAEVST
Assay type: biochemical
Procedure: Assay of inhibitory activity on rat steroid C17-20-lyase in vitro
Inhibitory activity was determined according to the method described in The Prostate, vol.26, 140-150(1995) with some modifications.
Testes excised from 13-week old, male SD rats were homogenized, and testicular microsomes were prepared by a series of centrifugation. The microsome protein (7 μg/10 μl) was added to 10 μl of 100 mM phosphate buffer (pH 7.4) in which 10 nM (final concentration) [1,2-^3H]-17α-hydroxyprogesterone, NADPH, and test compounds were dissolved. The reaction mixture was incubated for 7 min at 37° C., terminated by addition of 40 μl of Ethyl acetate, and briefly centrifuged. The substrate and the products (testosterone and androstenedione) in the upper phase were separated by silica gel thin layer chromatography. Detection of the spots and measurement of the radioactivity were performed by a BAS 2000 Bioimage analyzer. The concentration of the test compounds necessary to reduce the concentration of the products by 50% (The concentration in the control group in which no test compound was added was taken as 100%) was calculated, and shown in Table 1.
In the case of C/C(=C\Cn1ccnc1)c1ccc2c(c1)CCCC2, the IC50 is reported as 28 nM. With C(=C\c1ccc2ccccc2c1)/Cn1ccnc1 the IC50 was 26 nM. For C(=C\c1ccc2c(c1)CCCC2)/c1ccncc1, the IC50 was 190 nM. C/C(=C\c1ccc2ccccc2c1)Cn1ccnc1 gave an IC50 of 20 nM. In the case of C(=C\c1ccc2ccccc2c1)/Cc1cccnc1, the IC50 is reported as 100 nM. With C/C(=C\Cn1ccnc1)c1ccc2ccccc2c1 the IC50 was 13 nM.
